Data as given in patent US12084458B2, “Substituted pyridines, pyridazines, and pyrimidines as TYK2 inhibitors” (Sudo Biosciences Limited, priority 2021, dated 2024).
Read-outs that look alike come from different tables or passages of the source.

What was measured:
Format in all cases: cell-based
[1] = system: HEK-Blue IL-23 cells (IL-23-stimulated STAT3 SEAP reporter; TYK2 JH2); assay: HEK-Blue IL-23 SEAP reporter assay for profiling TYK2 pseudokinase (JH2) inhibition; conditions: 10 ng/mL human recombinant IL-23, SEAP reporter, read-out: IL23 (TYK2 inhibitory activity, IC50)
Summary of the method: (§1)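 Reporter cells were seeded in DMEM/10% heat-inactivated FBS and cultured 20-22 h at 37 °C. Compounds, serially diluted, were applied for 60 min before human recombinant IL-23 (10 ng/mL, 22-24 h) or IFNα (1 ng/mL, 16-18 h) was added. Secreted alkaline phosphatase was then quantified with QUANTI-Blue.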

[2] = system: HEK-Blue IL-2 reporter cells (IL-2-stimulated STAT5 SEAP reporter); assay: HEK-Blue IL-2 SEAP reporter assay for determining selectivity; conditions: 4 ng/mL human recombinant IL-2
Protocol: (§2) Example B-3: HEK-Blue™ IL-2 and IFNγ Reporter Assays for Determining Selectivity
(§3) HEK-Blue™ IL-2 and IFNγ reporter cells with a stably-integrated cytokine receptor and STAT5 or STAT1 express STAT-inducible secreted embryonic alkaline phosphatase (SEAP) reporter gene upon cytokine stimulation. These cells were plated in DMEM (Gibco) containing 10% heat-inactivated FBS (Gibco) and 100 U/mL PenStrep (Gibco) at 37° C. under 5% CO2 conditions for 20-22 hours. The cells were then pretreated with serially diluted test compounds for 60 min prior to stimulation with either 4 ng/mL human recombinant IL-2 (Miltenyl Biotech) or 50 ng/mL human recombinant IFNγ (InvivoGen) for 24 hours. SEAP induction was measured using the QUANTI-Blue™ Solution (InvivoGen) according to the manufacturer's instructions.

[3] = system: HEK-Blue IFNγ reporter cells (IFNγ-stimulated STAT1 SEAP reporter); assay: HEK-Blue IFNγ SEAP reporter assay for determining selectivity; conditions: 50 ng/mL human recombinant IFNγ, read-out: IFN-γ (SEAP selectivity, IC50)
Protocol: as §2, §3

[4] = system: HEK-Blue IFNα/β cells (IFNα-stimulated STAT1 SEAP reporter; TYK2 JH2); assay: HEK-Blue IFNα/β SEAP reporter assay for profiling TYK2 pseudokinase (JH2) inhibition; conditions: 1 ng/mL human recombinant IFNα, read-out: IFNα (TYK2 inhibitory activity, IC50)
Summary of the method: as §1

SMILES	IC50 [1] [µM]	IC50 [2] [µM]	IC50 ([3]; Homo sapiens, HEK-Blue) [µM]	IC50 ([4]; Homo sapiens, HEK-Blue) [µM]	IC50 [3] [µM]	IC50 [4] [µM]
[2H]C([2H])([2H])NC(=O)c1cnc(NC(=O)NC2CC2)cc1Nc1cccc2c1N(C)Cc1nn(C)nc1-2 [Compound 66, 6-(3-cyclopropylureido)-4-((2,5-dimethyl-4,5-dihydro-2H-[1,2,3]triazolo[4,5-c]quinolin-6-yl)amino)-N-(methyl-d3)nicotinamide]	< 0.03	> 1	> 1	0.03 to 0.3		
[2H]C([2H])([2H])NC(=O)c1nnc(NC(=O)[C@@H]2CC2(F)F)cc1Nc1nccc2c1N(C)Cc1nn(C)nc1-2 [Compound 68, (S)-6-(2,2-difluorocyclopropane-1-carboxamido)-4-((2,5-dimethyl-4,5-dihydro-2H-[1,2,3]triazolo[4,5-c][1,7]naphthyridin-6-yl)amino)-N-(methyl-d3)pyridazine-3-carboxamide]	< 0.03	> 1	0.3 to 1	< 0.03		
[2H]C([2H])([2H])NC(=O)c1nnc(NC(=O)[C@H]2CC2(F)F)cc1Nc1nccc2c1N(C)Cc1nn(C)nc1-2 [Compound 69, (R)-6-(2,2-difluorocyclopropane-1-carboxamido)-4-((2,5-dimethyl-4,5-dihydro-2H-[1,2,3]triazolo[4,5-c][1,7]naphthyridin-6-yl)amino)-N-(methyl-d3)pyridazine-3-carboxamide]	< 0.03	> 1		0.03 to 0.3	> 1	
[2H]C([2H])([2H])NC(=O)c1cnc(NC(=O)[C@@H]2CC2(F)F)cc1Nc1cccc2c1N(C)Cc1nn(C)nc1-2 [Compound 70, (S)-6-(2,2-difluorocyclopropane-1-carboxamido)-4-((2,5-dimethyl-4,5-dihydro-2H-[1,2,3]triazolo[4,5-c]quinolin-6-yl)amino)-N-(methyl-d3)nicotinamide]	< 0.03	> 1	> 1	0.03 to 0.3		
[2H]C([2H])([2H])NC(=O)c1nnc(NC(=O)[C@H]2CC2(F)F)cc1Nc1nccc2c1N(C)Cc1nn(C)nc1-2 [Compound 71, (R)-6-(2,2-difluorocyclopropane-1-carboxamido)-4-((2,5-dimethyl-4,5-dihydro-2H-[1,2,3]triazolo[4,5-c][1,7]naphthyridin-6-yl)amino)-N-(methyl-d3)pyridazine-3-carboxamide]	< 0.03	> 1			0.03 to 0.3	< 0.03
[2H]C([2H])([2H])NC(=O)c1nnc(NC(=O)C2CC2)cc1Nc1cc(F)cc2c1N(C)Cc1nc(C)nn1-2 [Compound 90, 6-(cyclopropanecarboxamido)-4-((8-fluoro-2,5-dimethyl-4,5-dihydro-[1,2,4]triazolo[1,5-a]quinoxalin-6-yl)amino)-N-(methyl-d3)pyridazine-3-carboxamide]	< 0.03	> 1	0.03 to 0.3	0.03 to 0.3		
[2H]C([2H])([2H])NC(=O)c1nnc(NC(=O)C2CC2)cc1Nc1nccc2c1N(C)Cc1nn(C([2H])([2H])[2H])nc1-2 [Compound 91, 6-(cyclopropanecarboxamido)-N-(methyl-d3)-4-((5-methyl-2-(methyl-d3)-4,5-dihydro-2H-[1,2,3]triazolo[4,5-c][1,7]naphthyridin-6-yl)amino)pyridazine-3-carboxamide]	< 0.03	> 1	0.03 to 0.3	< 0.03		
[2H]C([2H])([2H])NC(=O)c1cnc(NC(=O)C2CC2)cc1Nc1nccc2c1N(C)Cc1nn(C([2H])([2H])[2H])nc1-2 [Compound 92, 6-(cyclopropanecarboxamido)-N-(methyl-d3)-4-((5-methyl-2-(methyl-d3)-4,5-dihydro-2H-[1,2,3]triazolo[4,5-c][1,7]naphthyridin-6-yl)amino)nicotinamide]	< 0.03	0.3 to 1	0.03 to 0.3	< 0.03		
[2H]C([2H])([2H])NC(=O)c1nnc(NC(=O)C2CC2)cc1Nc1nccc2c1N(C)Cc1nn(CC)nc1-2 [Compound 93, 6-(cyclopropanecarboxamido)-4-((2-ethyl-5-methyl-4,5-dihydro-2H-[1,2,3]triazolo[4,5-c][1,7]naphthyridin-6-yl)amino)-N-(methyl-d3)pyridazine-3-carboxamide]	< 0.03	0.3 to 1	0.3 to 1	< 0.03		
[2H]C([2H])([2H])NC(=O)c1nnc(NC(=O)C2CC2)cc1Nc1nccc2c1N(C)C([2H])([2H])c1nn(C)nc1-2 [Compound 96, 6-(cyclopropanecarboxamido)-4-((2,5-dimethyl-4,5-dihydro-2H-[1,2,3]triazolo[4,5-c][1,7]naphthyridin-6-yl-4,4-d2)amino)-N-(methyl-d3)pyridazine-3-carboxamide]	< 0.03	0.3 to 1	0.03 to 0.3	< 0.03		
[2H]C([2H])([2H])NC(=O)c1cnc(NC(=O)C2CC2)cc1Nc1nccc2c1N(C)C([2H])([2H])c1nn(C)nc1-2 [Compound 97, 6-(cyclopropanecarboxamido)-4-((2,5-dimethyl-4,5-dihydro-2H-[1,2,3]triazolo[4,5-c][1,7]naphthyridin-6-yl-4,4-d2)amino)-N-(methyl-d3)nicotinamide]	< 0.03	> 1	0.3 to 1	< 0.03		
[2H]C([2H])([2H])NC(=O)c1cnc(NC(=O)NC)cc1Nc1cc(F)cc2c1N(C)Cc1nc(C)nn1-2 [Compound 101, 4-((8-fluoro-2,5-dimethyl-4,5-dihydro-[1,2,4]triazolo[1,5-a]quinoxalin-6-yl)amino)-N-(methyl-d3)-6-(3-methylureido)nicotinamide]	0.03 to 0.3	> 1	> 1	0.3 to 1		
[2H]C([2H])([2H])NC(=O)c1cnc(Nc2cc(C)nc(C)n2)cc1Nc1cc(F)cc2c1N(C)Cc1nc(C)nn1-2 [Compound 102, 6-((2,6-dimethylpyrimidin-4-yl)amino)-4-((8-fluoro-2,5-dimethyl-4,5-dihydro-[1,2,4]triazolo[1,5-a]quinoxalin-6-yl)amino)-N-(methyl-d3)nicotinamide]	< 0.03	0.3 to 1	0.03 to 0.3	< 0.03		
[2H]C([2H])([2H])NC(=O)c1nnc(NC(=O)C2CC2)cc1Nc1ccc(F)c2c1N(C)Cc1nc(C)nn1-2 [Compound 105, 6-(cyclopropanecarboxamido)-4-((9-fluoro-2,5-dimethyl-4,5-dihydro-[1,2,4]triazolo[1,5-a]quinoxalin-6-yl)amino)-N-(methyl-d3)pyridazine-3-carboxamide]	< 0.03	> 1	> 1	0.03 to 0.3		
[2H]C([2H])([2H])NC(=O)c1cnc(NC(=O)C2CC2)cc1Nc1ccc(F)c2c1N(C)Cc1nc(C)nn1-2 [Compound 107, 6-(cyclopropanecarboxamido)-4-((9-fluoro-2,5-dimethyl-4,5-dihydro-[1,2,4]triazolo[1,5-a]quinoxalin-6-yl)amino)-N-(methyl-d3)nicotinamide]	< 0.03	> 1	> 1	0.03 to 0.3		
[2H]C([2H])([2H])NC(=O)c1nnc(NC(=O)NC)cc1Nc1nccc2c1N(C)Cc1nn(C)nc1-2 [Compound 108, 4-((2,5-dimethyl-4,5-dihydro-2H-[1,2,3]triazolo[4,5-c][1,7]naphthyridin-6-yl)amino)-N-(methyl-d3)-6-(3-methylureido)pyridazine-3-carboxamide]	< 0.03	0.03 to 0.3	> 1	< 0.03		
